Source: ChEMBL document CHEMBL4118085, “Plasma Kallikrein Inhibitors for the Treatment of Retinal Vascular Permeability Associated with Diabetic Retinopathy and Diabetic Macular Edema” (ACS Med Chem Lett, 2017)

Molecular target: Plasma kallikrein (Homo sapiens, UniProt P03952)
Test: Inhibition of human plasma kallikrein using H-Pro-Phe-Arg-AMC as substrate after 1 hr by fluorescence assay

Plasma kallikrein, sequence (P03952 20-390 limits assumed): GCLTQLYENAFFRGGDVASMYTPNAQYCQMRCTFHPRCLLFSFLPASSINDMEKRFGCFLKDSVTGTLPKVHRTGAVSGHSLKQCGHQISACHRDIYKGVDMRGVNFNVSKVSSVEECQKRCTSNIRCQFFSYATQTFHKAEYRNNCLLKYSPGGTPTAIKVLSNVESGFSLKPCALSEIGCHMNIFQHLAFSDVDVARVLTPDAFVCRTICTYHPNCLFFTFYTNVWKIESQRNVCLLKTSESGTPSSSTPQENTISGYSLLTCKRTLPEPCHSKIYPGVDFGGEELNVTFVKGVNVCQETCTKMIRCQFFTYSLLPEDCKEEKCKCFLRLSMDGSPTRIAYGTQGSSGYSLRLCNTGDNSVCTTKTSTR
Plasma kallikrein, sequence (P03952 391-638 limits assumed): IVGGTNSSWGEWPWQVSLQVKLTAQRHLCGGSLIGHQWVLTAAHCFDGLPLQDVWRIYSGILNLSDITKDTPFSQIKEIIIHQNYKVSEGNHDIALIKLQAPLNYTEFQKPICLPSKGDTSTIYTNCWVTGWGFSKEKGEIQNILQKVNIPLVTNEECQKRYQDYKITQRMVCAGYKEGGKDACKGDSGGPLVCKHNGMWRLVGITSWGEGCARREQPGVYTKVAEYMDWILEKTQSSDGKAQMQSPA

Row | IC50 [nM] | Compound
1 | 1900 | Cc1ccc2cc(Cn3cc(C(=O)N[C@H]4CCc5nc(N)ccc54)nn3)ccc2n1
2 | 9 | Nc1ccc2c(n1)CCC2NC(=O)c1cnn(Cc2ccc(Cn3ccccc3=O)cc2)c1 (stereo not given)

The next lines start with the molecule.

Row | Compound | IC50 [nM]
3 | C[C@H]1CCN(c2ccc(Cn3cc(C(=O)N[C@@H]4CCc5nc(N)ccc54)cn3)cn2)C1 | 19
4 | Cc1cc(N)nc2c1C(NC(=O)c1cnn(Cc3ccc(Cn4ccccc4=O)cc3)c1)CC2 (stereo not given) | 4
5 | Cc1cnn(Cc2ccc(Cn3nc(C(=O)N[C@@H]4CCc5c4ccnc5N)cc3C(F)(F)F)cc2)c1 | 1
